Tested on: 883617-216-R-J1-PDC complex spheroid viability
Test: Anticancer human tumor 883617-216-R-J1-PDC patient-derived bladder carcinoma cell line growth inhibition [POLQ]
Settings: for IC50: curve of first compound; for viability, T/C: stronger effect = lower value
How it was run: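 Patient-derived tumour cells were co-cultured with HUVEC and mesenchymal stem cells as multicellular spheroids at 37 °C. They were treated with POLQ inhibitors (novobiocin, ART-558, RP6685) alone or combined with other agents. Top concentrations were at or near clinical Cmax (otherwise 10 microM; SN-38 at 1 microM), decreasing in half-log steps.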

[1] = second compound 0.0316 µM, first compound 0.0316 µM
[2] = second compound 0.0316 µM, first compound 0.1 µM
[3] = second compound 0.0316 µM, first compound 0.316 µM
[4] = second compound 0.0316 µM, first compound 1 µM
[5] = second compound 0.0316 µM, first compound 3.16 µM
[6] = second compound 0.0316 µM, first compound 10 µM
[7] = second compound 0.1 µM, first compound 0.0316 µM
[8] = second compound 0.1 µM, first compound 0.1 µM
[9] = second compound 0.1 µM, first compound 0.316 µM
[10] = second compound 0.1 µM, first compound 1 µM
[11] = second compound 0.1 µM, first compound 3.16 µM
[12] = second compound 0.1 µM, first compound 10 µM
[13] = second compound 0.316 µM, first compound 0.0316 µM
[14] = second compound 0.316 µM, first compound 0.1 µM
[15] = second compound 0.316 µM, first compound 0.316 µM
[16] = second compound 0.316 µM, first compound 1 µM
[17] = second compound 0.316 µM, first compound 3.16 µM
[18] = second compound 0.316 µM, first compound 10 µM
[19] = second compound 1 µM, first compound 0.0316 µM
[20] = second compound 1 µM, first compound 0.1 µM
[21] = second compound 1 µM, first compound 0.316 µM
[22] = second compound 1 µM, first compound 1 µM
[23] = second compound 1 µM, first compound 3.16 µM
[24] = second compound 1 µM, first compound 10 µM
[25] = second compound 3.16 µM, first compound 0.0316 µM
[26] = second compound 3.16 µM, first compound 0.1 µM
[27] = second compound 3.16 µM, first compound 0.316 µM
[28] = second compound 3.16 µM, first compound 1 µM
[29] = second compound 3.16 µM, first compound 3.16 µM
[30] = second compound 3.16 µM, first compound 10 µM
[31] = second compound 10 µM, first compound 0.0316 µM
[32] = second compound 10 µM, first compound 0.1 µM
[33] = second compound 10 µM, first compound 0.316 µM
[34] = second compound 10 µM, first compound 1 µM
[35] = second compound 10 µM, first compound 3.16 µM
[36] = second compound 10 µM, first compound 10 µM
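Also: spheroids exposed to compounds for seven days before readout.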
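For viability, T/C in this document: 100% = DMSO vehicle control viability.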

## CC1COCCN1c1cc(-c2ccnn2C)c2ccnc(-c3ccn[nH]3)c2n1 (stereo not drawn) + Nc1ccc(C#CCN(C(=O)Cc2ncc(C(F)(F)F)cc2C(F)(F)F)c2ccc(F)cc2)nn1
Second compound 0.0316 µM
  IC50: 292 nM
Second compound 0.1 µM
  IC50: 408 nM
Second compound 0.316 µM
  IC50: 479 nM
Second compound 1 µM
  IC50: 422 nM
Second compound 3.16 µM
  IC50: 572 nM
Second compound 10 µM
  IC50: 482 nM
[1]
  viability, T/C: 76.9%
[2]
  viability, T/C: 65.1%
[3]
  viability, T/C: 48%
[4]
  viability, T/C: 35.7%
[5]
  viability, T/C: 36.3%
[6]
  viability, T/C: 25.3%
[7]
  viability, T/C: 73.1%
[8]
  viability, T/C: 59.3%
[9]
  viability, T/C: 59.1%
[10]
  viability, T/C: 33.6%
[11]
  viability, T/C: 32.6%
[12]
  viability, T/C: 24.9%
[13]
  viability, T/C: 75.4%
[14]
  viability, T/C: 58.4%
[15]
  viability, T/C: 59%
[16]
  viability, T/C: 41.4%
[17]
  viability, T/C: 34.9%
[18]
  viability, T/C: 26%
[19]
  viability, T/C: 68.2%
[20]
  viability, T/C: 60.5%
[21]
  viability, T/C: 51.7%
[22]
  viability, T/C: 41.7%
[23]
  viability, T/C: 44.8%
[24]
  viability, T/C: 34.8%
[25]
  viability, T/C: 70.9%
[26]
  viability, T/C: 61.3%
[27]
  viability, T/C: 56.1%
[28]
  viability, T/C: 44%
[29]
  viability, T/C: 39.1%
[30]
  viability, T/C: 28.9%
[31]
  viability, T/C: 84.5%
[32]
  viability, T/C: 70%
[33]
  viability, T/C: 59.5%
[34]
  viability, T/C: 35.4%
[35]
  viability, T/C: 40.1%
[36]
  viability, T/C: 34.4%

## CC1COCCN1c1cc(C2(S(C)(=N)=O)CC2)nc(-c2ccnc3[nH]ccc23)n1 (stereo not drawn) + Nc1ccc(C#CCN(C(=O)Cc2ncc(C(F)(F)F)cc2C(F)(F)F)c2ccc(F)cc2)nn1
Second compound 0.0316 µM
  IC50: 5980 nM
Second compound 0.1 µM
  IC50: 5700 nM
Second compound 0.316 µM
  IC50: 4480 nM
Second compound 1 µM
  IC50: 4270 nM
Second compound 3.16 µM
  IC50: 6200 nM
Second compound 10 µM
  IC50: 3530 nM
[1]
  viability, T/C: 110%
[2]
  viability, T/C: 108%
[3]
  viability, T/C: 89.2%
[4]
  viability, T/C: 76.8%
[5]
  viability, T/C: 59.7%
[6]
  viability, T/C: 42.5%
[7]
  viability, T/C: 82.7%
[8]
  viability, T/C: 101%
[9]
  viability, T/C: 89.8%
[10]
  viability, T/C: 76.4%
[11]
  viability, T/C: 62%
[12]
  viability, T/C: 39.6%
[13]
  viability, T/C: 96.7%
[14]
  viability, T/C: 111%
[15]
  viability, T/C: 93.1%
[16]
  viability, T/C: 73.4%
[17]
  viability, T/C: 56.7%
[18]
  viability, T/C: 40.2%
[19]
  viability, T/C: 99.5%
[20]
  viability, T/C: 90.3%
[21]
  viability, T/C: 87.5%
[22]
  viability, T/C: 65.4%
[23]
  viability, T/C: 56.6%
[24]
  viability, T/C: 37.4%
[25]
  viability, T/C: 114%
[26]
  viability, T/C: 93.1%
[27]
  viability, T/C: 97.6%
[28]
  viability, T/C: 82.3%
[29]
  viability, T/C: 63.8%
[30]
  viability, T/C: 39.4%
[31]
  viability, T/C: 98.1%
[32]
  viability, T/C: 105%
[33]
  viability, T/C: 102%
[34]
  viability, T/C: 83.7%
[35]
  viability, T/C: 52%
[36]
  viability, T/C: 37.5%

## COc1ccc([C@@H](O)c2cc(-c3ncnc4cc(N5CCOCC5)ccc34)c(F)cc2Cl)nn1 + Nc1ccc(C#CCN(C(=O)Cc2ncc(C(F)(F)F)cc2C(F)(F)F)c2ccc(F)cc2)nn1
Second compound 0.0316 µM
  IC50: 2810 nM
Second compound 0.1 µM
  IC50: 2800 nM
Second compound 0.316 µM
  IC50: 2660 nM
Second compound 1 µM
  IC50: 3410 nM
Second compound 3.16 µM
  IC50: 2870 nM
Second compound 10 µM
  IC50: 2500 nM
[1]
  viability, T/C: 104%
[2]
  viability, T/C: 92.5%
[3]
  viability, T/C: 90.1%
[4]
  viability, T/C: 66.7%
[5]
  viability, T/C: 48%
[6]
  viability, T/C: 36.6%
[7]
  viability, T/C: 75.6%
[8]
  viability, T/C: 97.9%
[9]
  viability, T/C: 84.6%
[10]
  viability, T/C: 63.2%
[11]
  viability, T/C: 51.9%
[12]
  viability, T/C: 33.1%
[13]
  viability, T/C: 108%
[14]
  viability, T/C: 99.7%
[15]
  viability, T/C: 84.3%
[16]
  viability, T/C: 62.8%
[17]
  viability, T/C: 49.8%
[18]
  viability, T/C: 31.4%
[19]
  viability, T/C: 94.8%
[20]
  viability, T/C: 89.3%
[21]
  viability, T/C: 77.9%
[22]
  viability, T/C: 68.2%
[23]
  viability, T/C: 50%
[24]
  viability, T/C: 35.9%
[25]
  viability, T/C: 96.3%
[26]
  viability, T/C: 102%
[27]
  viability, T/C: 90.8%
[28]
  viability, T/C: 68.3%
[29]
  viability, T/C: 50.6%
[30]
  viability, T/C: 37.1%
[31]
  viability, T/C: 108%
[32]
  viability, T/C: 103%
[33]
  viability, T/C: 101%
[34]
  viability, T/C: 75.5%
[35]
  viability, T/C: 43.6%
[36]
  viability, T/C: 32.6%

## Cn1ncnc1[C@H]1c2n[nH]c(=O)c3cc(F)cc(c23)N[C@@H]1c1ccc(F)cc1 + Nc1ccc(C#CCN(C(=O)Cc2ncc(C(F)(F)F)cc2C(F)(F)F)c2ccc(F)cc2)nn1
Second compound 0.0316 µM
  IC50: > 100 nM
Second compound 0.1 µM
  IC50: > 100 nM
Second compound 0.316 µM
  IC50: > 100 nM
Second compound 1 µM
  IC50: > 100 nM
Second compound 3.16 µM
  IC50: > 100 nM
Second compound 10 µM
  IC50: > 100 nM
Second compound 0.0316 µM, first compound 0.000316 µM
  viability, T/C: 87.9%
Second compound 0.0316 µM, first compound 0.001 µM
  viability, T/C: 94.4%
Second compound 0.0316 µM, first compound 0.00316 µM
  viability, T/C: 99.1%
Second compound 0.0316 µM, first compound 0.01 µM
  viability, T/C: 82.4%
[1]
  viability, T/C: 72%
[2]
  viability, T/C: 78.9%
Second compound 0.1 µM, first compound 0.000316 µM
  viability, T/C: 93.8%
Second compound 0.1 µM, first compound 0.001 µM
  viability, T/C: 97.5%
Second compound 0.1 µM, first compound 0.00316 µM
  viability, T/C: 97.7%
Second compound 0.1 µM, first compound 0.01 µM
  viability, T/C: 79.7%
[7]
  viability, T/C: 85.4%
[8]
  viability, T/C: 80.7%
Second compound 0.316 µM, first compound 0.000316 µM
  viability, T/C: 82.9%
Second compound 0.316 µM, first compound 0.001 µM
  viability, T/C: 111%
Second compound 0.316 µM, first compound 0.00316 µM
  viability, T/C: 91.9%
Second compound 0.316 µM, first compound 0.01 µM
  viability, T/C: 87.9%
[13]
  viability, T/C: 83%
[14]
  viability, T/C: 77.5%
Second compound 1 µM, first compound 0.000316 µM
  viability, T/C: 91.9%
Second compound 1 µM, first compound 0.001 µM
  viability, T/C: 94.4%
Second compound 1 µM, first compound 0.00316 µM
  viability, T/C: 104%
Second compound 1 µM, first compound 0.01 µM
  viability, T/C: 93.1%
[19]
  viability, T/C: 84.5%
[20]
  viability, T/C: 81.8%
Second compound 3.16 µM, first compound 0.000316 µM
  viability, T/C: 101%
Second compound 3.16 µM, first compound 0.001 µM
  viability, T/C: 112%
Second compound 3.16 µM, first compound 0.00316 µM
  viability, T/C: 90.2%
Second compound 3.16 µM, first compound 0.01 µM
  viability, T/C: 109%
[25]
  viability, T/C: 86%
[26]
  viability, T/C: 67.8%
Second compound 10 µM, first compound 0.000316 µM
  viability, T/C: 100%
Second compound 10 µM, first compound 0.001 µM
  viability, T/C: 102%
Second compound 10 µM, first compound 0.00316 µM
  viability, T/C: 102%
Second compound 10 µM, first compound 0.01 µM
  viability, T/C: 95.8%
[31]
  viability, T/C: 118%
[32]
  viability, T/C: 92.2%
